Test results: patent US11203577B2, “Sulfonyl-structure-containing triazinone derivatives, their preparation methods and their uses in insect killing and/or bacterium killing” (Nankai University, priority 2017, dated 2021)

What was measured:
Armyworms = experiment: Test of insecticidal activity against armyworms (leaf immersion); conditions: 600 mg/kg, 3-4 days
Wheat head blight = experiment: whole plant or invertebrate; type: cell-based; conditions: Triticum aestivum, read-out: Fungicidal activity (%) Wheat head blight
Cotton bollworms = experiment: Test of insecticidal activity against cotton bollworms (pesticide mixed into feedstuff); conditions: read-out: Mortalities (%) Cotton bollworms
Procedure: Method of testing against cotton bollworms: the pesticide is mixed into the feedstuff, i.e., 3 mL prepared solution is added into about 27 g freshly prepared feedstuff; thus, required concentration is obtained by diluting by 10 times.

Tomato early blight = experiment: In vitro fungicidal activity, PDA colony diameter; type: cell-based, Alternaria solani; conditions: 50 mg/kg, inhibition of colony diameter; read-out: Fungicidal activity (%) Tomato early blight
Wheat sheath blight = experiment: In vitro fungicidal activity, PDA colony diameter; type: cell-based; conditions: 50 mg/kg, inhibition of colony diameter; read-out: Fungicidal activity (%) Wheat sheath blight
Potato late blight = experiment: microbe, parasite or virus in culture; type: cell-based; conditions: Phytophthora infestans, 96 h, read-out: Fungicidal activity (%) Potato late blight
[1] = test system: mosquito larvae (Culer pipiens pallens); experiment: Test of insecticidal activity against mosquito larvae (checked after 24 h); conditions: 24 h, read-out: Mortalities (%) against mosquito larvae
Procedure: Method of testing against mosquito larvae: the tested mosquito larvae are Culer pipiens pallens, a normal colony fed indoor. About 5 mg compound to be tested is weighed and loaded into a penicillin vial, 5 mL acetone (or an appropriate solvent) is added into the vial, and the vial is oscillated to dissolve the compound; thus, 1,000 ppm mother liquid is obtained. 1 mL mother liquid is weighed and added into a 100 mL beaker filled with 89 mL water, 10 mosquito larvae in the early stage of the 4th instar together with 10 mL feeding solution are poured into the beaker; thus, the concentration of the pesticide solution is 10 ppm (the pesticide solutions with other concentrations are attained by diluting the mother liquid by corresponding times). […] Water solution that contains 0.5 mL test solvent is used as a blank sample.

[2] = test system: bean aphides (Aphis laburni Kaltenbach); experiment: Test of insecticidal activity against aphides (leaf immersion, checked after 96 h); conditions: Aphis, 96 h, read-out: Mortalities (%) against aphides
[3] = test system: Cercospora brown spot of peanut; experiment: In vitro fungicidal activity, PDA colony diameter; type: cell-based; conditions: 96 h, 50 mg/kg, inhibition of colony diameter, read-out: Fungicidal activity (%) Cercospora brown spot of peanut
[4] = test system: Corn southern leaf blight; experiment: In vitro fungicidal activity, PDA colony diameter; type: cell-based; conditions: 50 mg/kg, inhibition of colony diameter; read-out: Fungicidal activity (%) Corn southern leaf blight
Apple ring rot = experiment: In vitro fungicidal activity, PDA colony diameter; type: cell-based; conditions: inhibition of colony diameter
Summary of the method: (§1)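 Percent growth inhibition derived from colony diameter versus compound-free PDA control after 4 days' culture. Plates contained compound at 50 mg/kg; inoculum was a plug taken from the periphery of a 7-day PDA culture.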

[5] = test system: Capsicum phytophthora blight; experiment: In vitro fungicidal activity, PDA colony diameter; type: cell-based; conditions: 96 h
Summary of the method: as §1

Cucumber fusarium wilt = experiment: In vitro fungicidal activity, PDA colony diameter; type: cell-based; conditions: 96 h, 50 mg/kg, inhibition of colony diameter, read-out: Fungicidal activity (%) Cucumber fusarium wilt
Sclerotinia rot of colza = experiment: In vitro fungicidal activity, PDA colony diameter; type: cell-based; conditions: 96 h, 50 mg/kg, inhibition of colony diameter, read-out: Fungicidal activity (%) Sclerotinia rot of colza
Rice bakanae disease = experiment: In vitro fungicidal activity, PDA colony diameter; type: cell-based; conditions: read-out: Fungicidal activity (%) Rice bakanae disease
Watermelon anthracnose = experiment: In vitro fungicidal activity, PDA colony diameter; type: cell-based; conditions: 50 mg/kg, inhibition of colony diameter; read-out: Fungicidal activity (%) Watermelon anthracnose
Maize borers = experiment: Test of insecticidal activity against maize borers (leaf immersion); conditions: read-out: Mortalities (%) Maize borers
[6] = test system: a variety of pathogenic fungi; experiment: In vitro fungicidal activity, summary over the tested fungi; type: cell-based; conditions: 50 mg/kg
Procedure: Here, the test is described in an example of Alternaria solani; it can be replaced by other fungi.
In vitro testing method: Alternaria solani is inoculated to a PDA culture medium and cultured for 7 days, a fungus dish with a diameter of […] is prepared on the periphery of the colony with a punch and inoculated to a PDA culture medium that contains pesticide at a concentration of 50 mg/kg and a PDA culture medium that doesn't contain the pesticide, and are cultured for 4 days respectively; then, the colony diameters are measured, and the inhibition percentages of the pesticides are calculated by comparing with the control sample.

Rice sheath blight = experiment: In vitro fungicidal activity, PDA colony diameter; type: cell-based; conditions: 50 mg/kg, inhibition of colony diameter; read-out: Fungicidal activity (%) Rice sheath blight

With `CC1=NNC(=O)N(N(S(=O)(=O)c2ccccc2)S(=O)(=O)c2ccccc2)C1` [Ib-5, N-(6-methyl-3-oxo-2,3-dihydro-1,2,4-triazin-4(5H)-yl)-N-(benzenesulfonyl)-benzenesulfonamide] the “Mortalities (%) Armyworms” value (Armyworms) was 40%, the inhibition at 50 mg/kg (Wheat head blight) was 10% and the mortality at 600 mg/kg (Cotton bollworms) was 20%. For the same molecule, the inhibition at 50 mg/kg (Tomato early blight) was 38.1%, the inhibition at 50 mg/kg (Wheat sheath blight) was 68.2% and the inhibition of growth at 50 mg/kg (Potato late blight) was 22.2%. For the same molecule, the mortality at 10 mg/kg [1] was 60%, the mortality at 5 mg/kg [2] was 10% and the mortality at 10 mg/kg [2] was 50%. For the same molecule, the mortality at 100 mg/kg [2] was 90%, the mortality at 600 mg/kg [2] was 100% and the inhibition of growth at 50 mg/kg [3] was 36.8%. The inhibition at 50 mg/kg [4] was 25%, the inhibition at 50 mg/kg (Apple ring rot) was 44.8% and the inhibition of growth at 50 mg/kg [5] was 42.9%. For the same molecule, the inhibition of growth at 50 mg/kg (Cucumber fusarium wilt) was 15%, the inhibition of growth at 50 mg/kg (Sclerotinia rot of colza) was 40% and the inhibition at 50 mg/kg (Rice bakanae disease) was 22.2%. The inhibition at 50 mg/kg (Watermelon anthracnose) was 20.8%, the mortality at 600 mg/kg (Maize borers) was 25% and the “fungicidal activity against a variety of pathogenic fungi” value [6] was “outstanding fungicidal activity”. For the same molecule, the inhibition at 50 mg/kg (Rice sheath blight) was 27%.
